Calls of active or inactive are those of the source.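 How the source made its calls: active means fitted curve reaching 40% activation at or below the top valid dose tested; inconclusive means flat curve at 30 to 70% activation, or poor fit; inactive means the rest.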
Tested on: SK-MEL-5 TRPM1 promoter luciferase reporter, 24 h
Experiment: activation of TRPM1 promoter luciferase in melanoma cells – SK-MEL-5 cells, cherry-pick samples, dose response (AID 540258);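 further: potency for activators that raise TRPM1 promoter luciferase signal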

SMILES | AC40
Cc1nc(C(=O)Nc2ccccc2)sc1C(=O)Nc1ccccc1 | 3.89 µM
CC1CCC(NC(=O)c2cc3ccccc3cc2O)CC1 (stereo unspecified) | 2.64 µM
COc1ccc(OC)c(/C=N/N(C)c2ccccc2)c1 | 1.44 µM
O=C(Cc1ccccn1)c1ccc(Cl)cc1 | 1.98 µM
CCCCNc1ccc2c(c1)C1CC2CCN1C(=O)OCc1ccccc1 (stereo unspecified) | 3.32 µM
CC(=O)N/C(N)=N/c1nc(=O)c2ccccc2s1 | 5.92 µM
Cc1ccn2c(C(=O)c3ccc(Cl)cc3)cnc2c1 | 0.803 µM
CSc1cccc(NC(=O)c2cnn3ccccc23)c1 | 1.03 µM
Cc1cccc(Nc2nc3c(s2)CCCC3)c1 | 0.993 µM
CC(=O)Nc1ccc2c(c1)ncn2-c1ccccc1 | 2.76 µM
c1ccc2c(Nc3nnc(-c4ccncc4)s3)cccc2c1 | 4.9 µM
COc1ccc(-c2nnc(SCc3ccccc3)n2N)cc1 | 5.97 µM
O=C(c1noc2c1CCCC2)N1CCc2ccccc2C1 | 5.97 µM
CC(C)Nc1cc(C(C)(C)C)nc2c(-c3ccccc3)cnn12 | 8.53 µM
CCCCc1nc2cc(C(=O)N3CCN(c4nc(C)cnc4C)CC3)ccc2o1 | > 35 µM (inactive)
COc1ccc2ccccc2c1/C=N/Nc1cccc(C(=O)O)c1 | 13.1 µM
COCc1nn2c(N)c(-c3ccccc3)cnc2c1-c1ccccc1 | 2.62 µM
Cc1ccc(-c2csc(NC(=O)c3ccc(Br)cc3)c2C(=O)O)cc1 | 6.1 µM
CC(=O)c1sc(NC(=O)c2ccccc2F)nc1-c1ccccc1 | 3.02 µM
c1ccc2c(c1)CC/C2=N/Nc1nc2ccccc2[nH]1 | 0.86 µM
Clc1ccc(-n2nnc(-c3ncc[nH]3)n2)cc1Cl | 7.37 µM
c1ccc(SCc2nc(-c3ccccn3)no2)cc1 | 3.01 µM

SMILES | AC40
c1csc(CSc2nc3ccccc3s2)c1 | 1.09 µM
Nc1ccc(N=Nc2ccccc2)c(N)n1 | 14.7 µM
O=c1nc(/C=C/c2ccc(O)c(O)c2)oc2ccccc12 | 6.32 µM
Nc1nonc1-n1nnc(C(=O)N/N=C/c2ccc(OCc3ccccc3F)cc2)c1CN1CCCCC1 | 17.1 µM
Cc1ccc(NC(=O)c2ccccc2Cl)c(Cl)c1 | 4.2 µM
Cc1ccc(NC(=O)N2CCc3ccccc3C2)cc1C | 4.47 µM
COC(=O)c1ccc(N=NN2CCCCC2)cc1 | 1.34 µM
COc1ccc(-c2cc(C(=O)Nc3ccccc3F)on2)cc1 | 2.53 µM
COC(=O)Cn1c(C)nc2c(sc3nc(C)cc(C)c32)c1=O | 2.35 µM
Cc1ccccc1S(=O)(=O)Oc1ccc2ccc(O)cc2c1 | 25.7 µM
Cc1ccc(-c2noc(C3CCCCC3)n2)cc1 | 1.68 µM
N/C(=N\OC(=O)c1ccc2c(c1)OCO2)c1ccc(Cl)cc1 | 5.31 µM
COc1ccc(/C=N/Nc2ccccn2)cc1O | 3.01 µM
CC(=O)c1ccc(N2Cc3ccccc3C2=NC(=O)c2cccs2)cc1 | 24.6 µM
O=C(Oc1ccc2ccccc2c1Cl)N1CCCCCC1 | 0.557 µM
COc1ccc(/C=N/Nc2nccnc2Cl)c(OC)c1 | 2.68 µM
O=C(Nc1ccc(NC(=O)c2ccccc2F)cc1)c1cccs1 | 4.26 µM
Cc1ccc(C(=O)Oc2cccc(-n3cnnn3)c2)cc1 | 4.7 µM
O=C(Nc1ccc(N2CCCCC2)cc1)c1cncc(Br)c1 | 0.969 µM
c1ccc2cc(C3CCCCC3)ncc2c1 | 29.4 µM
O=C(c1cccs1)N1CCn2c1nc1ccccc12 | 4.69 µM
COc1ccc(NC(C)=O)cc1S(=O)(=O)Nc1ccccc1C(=O)NCCc1ccccc1 | > 35 µM (inactive)

SMILES | AC40
CCCNC(=O)Nc1nc2ccccc2s1 | 0.513 µM
CCn1c(C)nc2cc(C(=O)N/N=C(\C)c3ccccc3O)ccc21 | 3.48 µM
CCCCSc1nsc(NC(C)=O)n1 | 1.28 µM
Cc1nn(CC(C)C)c(Cl)c1C(=O)NC1CCC(C)CC1 (stereo unspecified) | 2.63 µM
Clc1cnc(N/N=C/c2cccs2)c(Cl)c1 | 3.62 µM
CN(C)S(=O)(=O)c1cccc(-c2nnc(-c3ccccc3)o2)c1 | 8.86 µM
[O-]/[N+](=C\C=C\c1ccccc1)c1ccccc1 | 1.68 µM
CCn1cnc2cc(NCc3ccccc3Cl)ccc21 | 14.6 µM
Cc1cccc(NC(=O)c2sc3nc(N)c(C#N)cc3c2N)c1 | 2.61 µM
CC(C)c1ccc(NC(=O)c2snc3ccc(Cl)cc23)cc1 | 1.11 µM
Cc1ccc(-c2nn(-c3ccccc3)cc2/C=N/O)cc1 | 10.2 µM
CC(C)C[C@@H](CSc1ccccc1)N1CCN(CC(C)C)CCC1=O | 4.58 µM
CC(=O)c1cccc(NC(=O)c2cc3nc(C)cc(C)n3n2)c1 | 2.7 µM
Cc1ccc(C(=O)N(CCN2CCCCC2)CC2CCCN(C3CCCC3)C2)s1 (stereo unspecified) | 5.39 µM
COc1c(C)cccc1C(=O)Nc1ccc(N2CCN(S(C)(=O)=O)CC2)cc1 | 4.98 µM
Cc1cc(C)c2nc(NCc3ccccc3O)sc2c1 | 19 µM
COc1ccc(C(=O)Nc2ccc3c4c(cccc24)CC3)cc1 | 13.3 µM
c1ccc(-c2noc(CCC3CCCC3)n2)cc1 | 4.35 µM
COc1ccc2nc3ccccc3nc2c1 | 4.11 µM
O=C(NC1=NCCS1)c1ccc(Cl)s1 | 2.64 µM
CCCCNc1c(-c2ccc(-c3cccc(Cl)c3)cc2)nc2ccccn12 | 5.54 µM
Cc1ccc(C)c(NC(=O)c2cc(-c3cc(C)ccc3O)n[nH]2)c1 | 3.03 µM

— PubChem BioAssay AID540258 (Broad Institute, 2011)
